Test results taken from patent US9644201B2, “Structured peptide processing” (BICYCLE THERAPEUTICS LIMITED, priority 2009, dated 2017).
Starred links: 1 amine or outer side, 2 acyl side, 3 side chain; linkers in the order of their positions; H or OH if unused. Positions of bridges follow the written chain, without caps; N, C: chain ends. Residues, ends and D or L forms follow the SMILES beside them. No end group written: not given here. *: point of attachment. TBMB = c1c(C[*:1])cc(C[*:3])cc1C[*:2]; Cam = NC(=O)C*

Key:
[1] = molecular target: T1, biotinylated MDM2 peptide (res 2-125) (Homo sapiens, UniProt Q00987); test: Phage ELISA, binding to MDM2; conditions: 5 mM DTT 20 min, then chymotrypsin 50 μg/ml 2 min
T1 construct: biotinylated MDM2 peptide (res 2-125)
T1 sequence (Q00987 2-125, species assumed): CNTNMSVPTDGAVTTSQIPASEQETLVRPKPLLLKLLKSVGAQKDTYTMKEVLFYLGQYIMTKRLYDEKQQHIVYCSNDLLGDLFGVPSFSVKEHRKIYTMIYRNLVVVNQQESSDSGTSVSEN
Experimental: 0.6 μg/mL of biotinylated MDM2 peptide (res 2-125) was immobilized on a streptavidin-coated plate (Roche). Plate was blocked with PBSM (but 4% in milk powder) and linear or TBMB-conjugated phage (10^7 TU/well in PBSM in the presence or absence of 5 mM DTT) was incubated on the plate for 50 min at room temperature. Similarly, phage was first reduced in 5 mM DTT for 20 min, treated with chymotrypsin (50 μg/ml in PBS) for 2 min, mixed with PBSM (final concentration) and incubated on the plate for 50 min at room temperature. Phage was detected using an anti-M13-HRP monoclonal antibody (1:5000, Amersham).

MDM2 (res 2-125) = MDM2 (res 2-125) (Homo sapiens, UniProt Q00987); test: Fluorescence anisotropy titration, affinity for MDM2; assay type: binding
Chain of MDM2 (res 2-125) (Q00987 2-125, species assumed): as above
Experimental: Titration experiments were run on a Horiba Jobin Yvon fluorimeter equipped with the Hamilton Microlab titrator controlled by laboratory software. […] The slit widths for excitation and emission were 5 nm and 15 nm and the integration time 10 s was used for each measurement. The intrinsic fluorescence of tryptophan in peptides 10, 48 was used to measure their binding affinity for MDM2 (res 2-125). The experiments were performed at 23° C. in PBS, 5 mM DTT. Usually 250 μl of MDM2 (150 μM) was titrated into 1.2 ml of peptide (1 μM). Titration data were analyzed with a standard 1:1 binding model by using the quadratic solution to the equilibrium Kd=[A][B]/[AB]. […] The fitting equation contained an extra term to account for linear drift.

[2] = Resistance to proteases in serum; assay type: in vitro ADME, human; conditions: 37° C.
Experimental: (§1) For methods, see Example 3 following. The proteolysis was undertaken at 37° C. Cathepsin G and kalikrein reactions were carried out in 10 mM Tris pH 7.4, 150 mM NaCl, 10 mM MgCl2, 1 mM CaCl2, 0.1% BSA, 0.01% Triton X100, 5% DMSO. Chymotrypsin reactions were carried out in 100 mM Tris pH 7.4, 10 mM CaCl2. Pronase and proteinase K reactions were carried out in 100 mM Tris pH 7.4, 0.5% SDS. Subtilisin reactions were carried out in 50 mM KH2PO4 pH 7.5. Trypsin reactions were carried out in 67 mM sodium phosphate pH 7.6. Reaction conditions with serum involve dissolving the peptide in 1×PBS (total volume 24 μl) and 6 μl of human serum added to the reaction.

Kalikrein = Kalikrein (Homo sapiens, UniProt P03952); test: Peptide conjugate digestion with Kalikrein; assay type: in vitro ADME; set-up: Peptide digestion, intactness scale: key: +++: substantially intact; −: completely cleaved
Chain of Kalikrein (P03952 20-638): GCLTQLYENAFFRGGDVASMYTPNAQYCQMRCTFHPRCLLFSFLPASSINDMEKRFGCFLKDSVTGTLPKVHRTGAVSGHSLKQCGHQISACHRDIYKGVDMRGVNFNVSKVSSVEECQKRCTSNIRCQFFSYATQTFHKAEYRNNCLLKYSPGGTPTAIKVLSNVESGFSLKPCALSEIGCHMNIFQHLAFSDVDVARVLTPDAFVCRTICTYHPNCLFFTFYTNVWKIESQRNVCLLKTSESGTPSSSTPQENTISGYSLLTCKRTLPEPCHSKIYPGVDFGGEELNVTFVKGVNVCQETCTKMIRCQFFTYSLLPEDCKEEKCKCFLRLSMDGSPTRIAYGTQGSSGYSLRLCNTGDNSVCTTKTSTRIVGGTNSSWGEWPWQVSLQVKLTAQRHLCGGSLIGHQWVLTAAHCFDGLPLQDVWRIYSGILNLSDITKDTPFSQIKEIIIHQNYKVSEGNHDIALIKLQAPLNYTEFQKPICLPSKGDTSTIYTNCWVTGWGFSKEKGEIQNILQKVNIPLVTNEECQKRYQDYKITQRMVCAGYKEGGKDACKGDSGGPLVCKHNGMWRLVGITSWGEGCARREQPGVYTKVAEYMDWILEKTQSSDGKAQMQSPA
Experimental: as §1
(§2) Peptides (linear and conjugates) were dissolved in water at a concentration of 1 mg/ml, giving an effective concentration of ˜0.5 mM stock solutions and the concentration determined using amino acid analysis. 2 μl of peptide conjugates ([…]) (˜30 μM in reactions depending on actual molecular weight) were dissolved in reaction buffer (see below) in a total reaction volume of 30 μl, followed by the protease (typically in the range 1, 0.1 and 0.01 μg per reaction), and samples were incubated at 37° C. for 1 hr. 10 μl aliquots were quenched into 10 μl of 1% TFA. Samples were analysed by MALDI-TOF mass spectrometry to identify the fragment peaks and thus determine the site of cleavage. Where there was ambiguity as to the cleavage site samples were analysed by either by MALDI-TOF-TOF (Bruker Ultraflex 3) or by Linear Ion Trap (Thermoscientific Orbitrap XL) to determine accurate masses.

Chymotrypsin = test: Peptide conjugate digestion with Chymotrypsin; assay type: in vitro ADME; on Peptide digestion, intactness scale: key: +++: substantially intact; −: completely cleaved
Experimental: as §1, §2

[3] = Peptide conjugate digestion with Chymotrypsin; assay type: in vitro ADME; conditions: isolated enzyme chymotrypsin, pH 7.4; chymotrypsin 0.1 μg, after 1 hr; read-out: fraction cleaved by chymotrypsin; on Peptide digestion, intactness scale: key: +++: substantially intact; −: completely cleaved
Experimental: as §1, §2

Cathepsin G = molecular target: T2, Cathepsin G (Homo sapiens, UniProt P08311); test: Peptide conjugate digestion with Cathepsin G; assay type: in vitro ADME; further: key: +++: substantially intact; −: completely cleaved
T2 sequence (P08311 21-244): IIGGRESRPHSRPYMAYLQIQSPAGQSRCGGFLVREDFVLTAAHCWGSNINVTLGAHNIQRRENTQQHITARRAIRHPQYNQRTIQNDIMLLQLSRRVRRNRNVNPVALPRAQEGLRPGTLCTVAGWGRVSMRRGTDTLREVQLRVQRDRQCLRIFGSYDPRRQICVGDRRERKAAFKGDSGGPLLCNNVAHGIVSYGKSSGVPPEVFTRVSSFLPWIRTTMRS
Experimental: as §1, §2

Proteinase K = Proteinase K (Parengyodontium album, UniProt P06873); test: Peptide conjugate digestion with Proteinase K; assay type: in vitro ADME; set-up: key: +++: substantially intact; −: completely cleaved
Chain of Proteinase K (P06873 106-384): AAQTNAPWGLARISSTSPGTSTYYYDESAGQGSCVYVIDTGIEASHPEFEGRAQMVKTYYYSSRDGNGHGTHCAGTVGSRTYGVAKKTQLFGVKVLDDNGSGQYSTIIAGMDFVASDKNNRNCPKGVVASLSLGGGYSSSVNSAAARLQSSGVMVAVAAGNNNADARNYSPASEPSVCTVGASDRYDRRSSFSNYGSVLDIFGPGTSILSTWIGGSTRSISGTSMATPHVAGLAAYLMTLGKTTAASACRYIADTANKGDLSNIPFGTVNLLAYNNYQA
Experimental: as §1, §2

Pronase = test: Peptide conjugate digestion with Pronase; assay type: in vitro ADME; further: key: +++: substantially intact; −: completely cleaved
Experimental: as §1, §2

Trypsin = test: Peptide conjugate digestion with Trypsin; assay type: in vitro ADME; on Peptide digestion, intactness scale: key: +++: substantially intact; −: completely cleaved
Experimental: as §1, §2

Subtilisin = test: Peptide conjugate digestion with Subtilisin; assay type: in vitro ADME; further: key: +++: substantially intact; −: completely cleaved
Experimental: as §1
(§3) Peptides (linear and conjugates) were dissolved in water at a concentration of 1 mg/ml, giving an effective concentration of ˜0.5 mM stock solutions and the concentration determined using amino acid analysis. […] Samples were analysed by MALDI-TOF mass spectrometry to identify the fragment peaks and thus determine the site of cleavage. Where there was ambiguity as to the cleavage site samples were analysed by either by MALDI-TOF-TOF (Bruker Ultraflex 3) or by Linear Ion Trap (Thermoscientific Orbitrap XL) to determine accurate masses.

various proteases = assay type: in vitro ADME
Experimental: as §1, §3

[4] = Kd, peptide+MDM2, λex=295 nm, 23° C., PBS, 5 mM DTT
[5] = affinity for MDM2, synthetic peptide, sub-micromolar, stated range
[6] = mass spectrometric analysis of cleaved species

Molecule: CC(C)[C@@H]1NC(=O)[C@@H](NC(=O)[C@@H](N)CO)CSCc2cc3cc(c2)CSC[C@H](NC(=O)[C@H]([C@@H](C)O)NC(=O)[C@H](Cc2c[nH]c4ccccc24)NC(=O)CNC(=O)[C@H](Cc2ccccc2)NC(=O)[C@H](CCCNC(=N)N)NC1=O)C(=O)N[C@@H](CC(=O)O)C(=O)N[C@@H](CC(N)=O)C(=O)N[C@@H](CO)C(=O)N[C@@H](Cc1c[nH]c2ccccc12)C(=O)N[C@@H](Cc1c[nH]cn1)C(=O)NCC(=O)N[C@H](C(=O)N[C@@H](CCCCN)C(=O)NCC(=O)O)CSC3 [PEP48] (HELM PEPTIDE1{S.C.V.R.F.G.W.T.C.D.N.S.W.H.G.C.K.G}|CHEM1{[c1c(C[*:1])cc(C[*:3])cc1C[*:2]]}$PEPTIDE1,CHEM1,2:R3-1:R1|PEPTIDE1,CHEM1,9:R3-1:R2|PEPTIDE1,CHEM1,16:R3-1:R3$$$V2.0)
- binding to MDM2 after proteolysis [1]: resistant to proteolysis
- Kd (MDM2 (res 2-125); Kd, peptide+MDM2, λex=280 nm): 760 nM
- Kd (MDM2 (res 2-125); [4]): 567 nM
- Kd (MDM2 (res 2-125); [5]): 250 to 750 nM

Molecule: CC(C)C[C@@H]1NC(=O)[C@H](C)NC(=O)[C@H](CCC(=O)O)NC(=O)[C@H](CC(=O)O)NC(=O)[C@H](C)NC(=O)[C@@H]2CCCN2C(=O)[C@@H]2CSCc3cc(cc(c3)CSC[C@@H](C(=O)NCC(=O)O)NC1=O)CSC[C@H](NC(=O)[C@H](C)N)C(=O)N[C@@H](CO)C(=O)N[C@@H](CC(=O)O)C(=O)N[C@@H](CCCNC(=N)N)C(=O)N[C@@H](Cc1ccccc1)C(=O)N[C@@H](CCCNC(=N)N)C(=O)N[C@@H](CC(N)=O)C(=O)N2 [PK15-TBMB] (HELM PEPTIDE1{A.C.S.D.R.F.R.N.C.P.A.D.E.A.L.C.G}|CHEM1{[c1c(C[*:1])cc(C[*:3])cc1C[*:2]]}$PEPTIDE1,CHEM1,2:R3-1:R1|PEPTIDE1,CHEM1,9:R3-1:R2|PEPTIDE1,CHEM1,16:R3-1:R3$$$V2.0)
- time for which proteolysis in serum is resisted ([2]; later times not yet tested): at least 48 hours
- Peptide digestion, intactness scale (Kalikrein; Kalikrein 0.01, 37° C.): +++
- Peptide digestion, intactness scale (Kalikrein; Kalikrein 0.1, 37° C.): +++
- Peptide digestion, intactness scale (Kalikrein; Kalikrein 1, 37° C.): +++
- factor of resistance, TBMB conjugate versus linear (Kalikrein; attack by kallikrein, by comparing different concentrations of enzyme): about 100 fold
- cleavage by chymotrypsin (Chymotrypsin; 1 μg chymotrypsin, after 1 hour): completely cleaved
- Peptide digestion, intactness scale (Chymotrypsin; Chymotrypsin 0.01, 37° C.): +++
- Peptide digestion, intactness scale (Chymotrypsin; Chymotrypsin 0.1, 37° C.): +++
- Peptide digestion, intactness scale (Chymotrypsin; Chymotrypsin 1, 37° C.): +++
- chymotrypsin cleavage site (Chymotrypsin; [6]): same cleavage sites
- metabolised at 1 h, 20 μM [3]: ~50%
- Peptide digestion, intactness scale (Cathepsin G; Cathepsin G 0.01, 37° C.): +++
- Peptide digestion, intactness scale (Cathepsin G; Cathepsin G 0.1, 37° C.): +++
- Peptide digestion, intactness scale (Proteinase K; Proteinase K 0.01, 37° C.): +++
- Peptide digestion, intactness scale (Proteinase K; Proteinase K 0.1, 37° C.): +++
- Peptide digestion, intactness scale (Proteinase K; Proteinase K 1, 37° C.): +++
- Peptide digestion, intactness scale (Pronase; Pronase 0.01, 37° C.): +++
- Peptide digestion, intactness scale (Pronase; Pronase 0.1, 37° C.): +++
- Peptide digestion, intactness scale (Trypsin; Trypsin 0.01, 37° C.): +++
- Peptide digestion, intactness scale (Trypsin; Trypsin 10, 37° C.): −
- trypsin cleavage sites (Trypsin; [6]): same cleavage sites
- time to complete cleavage at R7 (Trypsin; trypsin 0.1 μg): ≤ 5 min
- Peptide digestion, intactness scale (Subtilisin; Subtilisin 0.009, 37° C.): +++
- Peptide digestion, intactness scale (Subtilisin; Subtilisin 9, 37° C.): −

Molecule: CG4L1-PK15L1 TBMB: bicyclic CG4L1-PK15L1 (WO 2009/098450) (ALCIFDLGFCSDRFRNCPADE; linker 3-10-17 via TBMB)
- factor of resistance, TBMB conjugate versus linear (various proteases): 1-100 fold

Molecule: CC(C)C[C@@H]1NC(=O)[C@H](CCC(=O)O)NC(=O)[C@@H](NC(=O)[C@@H](N)CO)CSCc2cc3cc(c2)CSC[C@H](NC(=O)[C@H](CCCCN)NC(=O)[C@@H]2CCCN2C(=O)[C@H](CC(N)=O)NC(=O)[C@H](Cc2c[nH]c4ccccc24)NC1=O)C(=O)N[C@@H](CCCNC(=N)N)C(=O)N[C@@H](CC(C)C)C(=O)N[C@@H](CO)C(=O)N1CCC[C@H]1C(=O)N[C@@H](Cc1ccccc1)C(=O)N[C@@H](CCC(=O)O)C(=O)N[C@H](C(=O)N[C@@H](CCCCN)C(=O)NCC(=O)O)CSC3 [PEP10] (HELM PEPTIDE1{S.C.E.L.W.N.P.K.C.R.L.S.P.F.E.C.K.G}|CHEM1{[c1c(C[*:1])cc(C[*:3])cc1C[*:2]]}$PEPTIDE1,CHEM1,2:R3-1:R1|PEPTIDE1,CHEM1,9:R3-1:R2|PEPTIDE1,CHEM1,16:R3-1:R3$$$V2.0)
- binding to MDM2 after proteolysis [1]: resistant to proteolysis
- Kd (MDM2 (res 2-125); [4]): 267 nM
- Kd (MDM2 (res 2-125); [5]): 250 to 750 nM

Molecule: CC(C)C[C@H](NC(=O)[C@H](C)NC(=O)[C@H](CCC(=O)O)NC(=O)[C@H](CC(=O)O)NC(=O)[C@H](C)NC(=O)[C@@H]1CCCN1C(=O)[C@H](CSCC(N)=O)NC(=O)[C@H](CC(N)=O)NC(=O)[C@H](CCCNC(=N)N)NC(=O)[C@H](Cc1ccccc1)NC(=O)[C@H](CCCNC(=N)N)NC(=O)[C@H](CC(=O)O)NC(=O)[C@H](CO)NC(=O)[C@H](CSCC(N)=O)NC(=O)[C@H](C)N)C(=O)N[C@@H](CSCC(N)=O)C(=O)NCC(=O)O [PK15 linear, AC*SDRFRNC*PADEALC*G] (H-AC(Cam)SDRFRNC(Cam)PADEALC(Cam)G-OH)
- time within which digested by the proteases in serum [2]: ≤ 2 h
- Peptide digestion, intactness scale (Chymotrypsin; Chymotrypsin 0.01, 37° C.): +++
- Peptide digestion, intactness scale (Chymotrypsin; Chymotrypsin 1, 37° C.): −
- Peptide digestion, intactness scale (Chymotrypsin; Chymotrypsin 10, 37° C.): −
- Peptide digestion, intactness scale (Cathepsin G; Cathepsin G 0.1, 37° C.): −
- Peptide digestion, intactness scale (Cathepsin G; Cathepsin G 1 (μg per reaction), 37° C.): −
- Peptide digestion, intactness scale (Pronase; Pronase 0.01, 37° C.): +++
- Peptide digestion, intactness scale (Pronase; Pronase 10, 37° C.): −
- Peptide digestion, intactness scale (Trypsin; Trypsin 1, 37° C.): −
- Peptide digestion, intactness scale (Trypsin; Trypsin 10, 37° C.): −
